Consider 36 molecules from ChEMBL document CHEMBL4002608, “Discovery of new MurA inhibitors using induced-fit simulation and docking” (Bioorg Med Chem Lett, 2017).

The source made the active and inactive calls. The rule behind the calls is not given here. A value given as a limit tells only on which side of the number the result lay.

Assay [1] in a line: Inhibition of Escherichia coli MurA.
The subject of assay [2] is Escherichia coli DH5[alpha]. The experiment in a line: Inhibition of Escherichia coli DH5alpha C-terminal His6-tagged MurA expressed in Escherichia coli BL21(DE3) assessed as residual activity at 100 uM using UNAG as substrate after 15 mins in presence of PEP by malachite green dye based spectrophotometric method relative to control.
The nature of assay [3]: Inhibition of Staphylococcus aureus MurA.
For assay [4], the system named is Escherichia coli DH5[alpha]. Nature of the assay: Irreversible inhibition of Escherichia coli DH5alpha C-terminal His6-tagged MurA expressed in Escherichia coli BL21(DE3) at 0.8 uM preincubated for 30 mins followed by compound dilution and subsequent substrate UNAG addition measured after 20 mins in presence of PEP by malachite green dye based spectrophotometric method.

Assay [5] is described as follows: Inhibition of Escherichia coli DH5alpha C-terminal His6-tagged MurA expressed in Escherichia coli BL21(DE3) using UNAG as substrate after 15 mins in presence of PEP by malachite green dye based spectrophotometric method. Further details: species or system Escherichia coli DH5[alpha].
A further assay relates to Staphylococcus aureus. Nature of the assay: Antibacterial activity against Staphylococcus aureus ATCC 29213 after 20 to 24 hrs by broth microdilution assay. The class given is functional. In general terms: Broth dilution looks for growth in wells or tubes with falling amounts of substance.
The subject of the next assay is Escherichia coli. Nature of the assay: Antibacterial activity against Escherichia coli ATCC 25922 after 20 to 24 hrs by broth microdilution assay. The class given is functional.
Assay [6] can be described thus: Inhibition of methicillin-resistant Staphylococcus aureus MurA.
The test system of assay [7] is Escherichia coli DH5[alpha]. Nature of the assay: Reversible inhibition of Escherichia coli DH5alpha C-terminal His6-tagged MurA expressed in Escherichia coli BL21(DE3) at 5 uM preincubated for 30 mins followed by compound dilution and subsequent substrate UNAG addition measured after 20 mins in presence of PEP by malachite green dye based spectrophotometric method.

Assay [8] in a line: Inhibition of Enterobacter cloacae MurA.
A short description of assay [9]: Inhibition of Haemophilus influenzae MurA.

`C=C1C(=O)OCC1O` (racemic) [(+/-)-TULIPALINE B] came in with a 50% inhibitory concentration (IC50) in assay [1] of 200 nM. Turning to `O=C(CCN1CCCO1)N1CCc2[nH]nc(-c3cccc4ccccc34)c2C1`, in assay [2], the Activity is 86%. For the molecule `O=C(O)C[C@H]1c2ccccc2CCN1C(=O)c1cc(=O)[nH]c2ccccc12`, the Activity in assay [2] was 85%. Take `O=c1oc2c(Cl)cc(O)c(Cl)c2s1`: the results for the IC50 in assay [1] and in assay [3] were 280 nM and 1090 nM, respectively. For the molecule `O=C(O)c1c([C@@H](C(=O)O)N2CCN(c3ccccn3)CC2)c2ccccc2n1Cc1ccccc1`, in [2], the Activity worked out at 87%. Consider `C[C@@H]1O[C@@H]1P(=O)(O)O` [FOSFOMYCIN], for which, in assay [4], the inhibition result is “Active”. In [5], the IC50 is 41000 nM. The Activity in [2] was less than 50%. For the molecule `CCOc1ccc(N2C(=O)[C@@H]3C4c5ccccc5C(C(=O)O)(c5ccccc54)[C@@H]3C2=O)cc1`, the Activity in assay [2] came out at 100%. For the molecule `O=C1[C@@H]2C3c4ccccc4C(C(=O)O)(c4ccccc43)[C@@H]2C(=O)N1c1cccc([N+](=O)[O-])c1`, the Activity in [2] amounted to 98%. In the case of `O=C(O)[C@H]1C[C@@H](C(=O)N2CCCC2)CN(C(=O)c2[nH]nc3c2CCCC3)C1`, in assay [2], the Activity amounted to 100%. For `O=C(O)[C@H]1CC2(CCN(C(=O)c3cc4ccccc4[nH]3)CC2)CN1C(=O)C1CC1`, the Activity in [2] was 100%. As to `CO[C@H](C(=O)N1CCc2c(cnc(C)c2CNC(=O)c2cccs2)C1)c1ccccc1`, the Activity in assay [2] is 92%. `c1ccc(CN2CC[C@@H](Nc3nncc(-c4cc5ccccc5o4)n3)C2)cc1`: the Activity in assay [2] worked out at 82%. The same measure, in the same setting: with `O=C(C1=C(O)C(=O)N(c2nnc(SCc3ccccc3)s2)[C@@H]1c1ccc(O)cc1)c1ccco1` the figure was 62%; with `O=C(O)c1nn(CCCc2ccccc2)c2c1CN(C(=O)c1cnc[nH]1)CC2`, 96%. As for `O=C(O)c1ccc(-c2nccn2Cc2nc3ccccc3c(=O)[nH]2)cc1`, the IC50 in assay [5] came to 82000 nM. Besides, the Activity in assay [2] was less than 50%. For the same molecule, the result in the assay on Staphylococcus aureus and in the assay with Escherichia coli was inactive. As to `CCc1cc(C(=O)N2CCN[C@H](C(=O)O)C2)c(NC(=O)c2ccccc2)s1`, the Activity in assay [2] worked out at 63%.

As to `CS(=O)(=O)N1CCc2cc(C(=O)N3CCC(c4cc5ccccc5[nH]4)CC3)ccc21`, the Activity in assay [2] was determined as 85%. Turning to `C=C(C(=O)OC)[C@@H]1[C@@H](CCCCCCCC)OC(=O)[C@@H]1O`, the half-maximal inhibitory concentration (IC50) was 2800 nM in [1] and 6700 nM in assay [6]. In the case of `O=[N+]([O-])/C(Br)=C/c1ccc(Br)o1`, the 50% inhibitory concentration (IC50) in [1] came out at 2800 nM; in assay [3], 3900 nM. In the case of `Cc1ccccc1-n1cc(CN[C@H]2CCCN(c3ncccn3)C2)cn1`, the Activity in assay [2] turned out to be 99%. Take `CC(=O)N1CCN([C@H](C(=O)O)c2c(C(=O)O)n(Cc3ccccc3)c3ccccc23)CC1`: the Activity in assay [2] is 96%.

As to `Cc1cc(C)nc(-c2cccc3c2O[C@@H](CNC(=O)c2ccc(N4CCN(C)CC4)cc2)C3)n1`, the Activity in [2] worked out at 98%. `Cc1c(C(=O)N2CCC[C@@H](C(N)=O)C2)sc2ncnc(NCCCc3ccccc3)c12`: in [2], the Activity was determined as 100%. As to `O=C(O)COc1ccccc1[C@@H]1C2=C(CCCC2=O)Nc2nc(SCc3ccccn3)nn21`, the Activity in assay [2] turned out to be 91%.

As for `Cc1n[nH]c(S/C(=C/c2ccc(-c3cccc(C(=O)O)c3)o2)C(=O)O)n1`, the IC50 in assay [5] was determined as 1000 nM. Further, in assay [2], the Activity was less than 50%. For the same molecule, the outcome in the assay on Staphylococcus aureus and in the assay on Escherichia coli was inactive. The inhibition entry in assay [7] is “Active”. As to `O=C(c1cnn(Cc2ccccc2)c1)N1CC=C(c2c[nH]c3ncccc23)CC1`, the IC50 in [5] was 109000 nM. Further, in assay [2], the Activity is less than 50%. Besides, the result with Staphylococcus aureus and in the assay on Escherichia coli was inactive.

Turning to `CN1CCN([C@H](C(=O)O)c2c(C(=O)O)n(Cc3ccccc3)c3ccccc23)CC1`, the Activity in assay [2] came out at 94%.

For the molecule `C[C@@H](Oc1ccc2ccccc2c1)C(=O)NCc1nc(-c2ncccn2)no1`, the Activity in assay [2] was 98%. Turning to `CC1=C(O)C(=O)[C@H]2O[C@@H]2C1=O`, the IC50 in assay [8] came out at 14000 nM. Regarding `O=C(O)c1nn(CCCc2ccccc2)c2c1CN(C(=O)c1ccc[nH]1)CC2`, in [2], the Activity was 91%. Take `O=C(Nc1cc(CCc2ccccc2)ccn1)[C@H]1CCCN(c2ncccn2)C1`: the Activity in assay [2] turned out to be 99%. Regarding `O=C1C(Oc2ccc(O)cc2)=C(Cl)C(=O)c2ncccc21`, half-maximal inhibition in assay [9] (IC50) was put at 2800 nM. As to `CCOc1ccc(N2C(=O)[C@@H]3C4c5ccccc5C(C(=O)O)(c5ccccc54)[C@@H]3C2=O)c([N+](=O)[O-])c1`, in [2], the Activity was determined as 78%. As to `Cc1ccccc1-c1cccc(CN[C@H]2CCCN(c3ncccn3)C2)c1`, in assay [2], the Activity is 86%. `CS(=O)(=O)N1CCN([C@H](C(=O)O)c2c(C(=O)O)n(Cc3ccccc3)c3ccccc23)CC1`: in assay [2], the Activity was determined as 99%. As to `Cc1ncc2c(c1CNC(=O)c1cc3ccccc3[nH]1)CCN(C(=O)C1=CCCC1)C2`, the Activity in assay [2] is 66%.

A word on the IC50: it is the concentration needed to halve the response being measured.
